Measurements as given in patent publication US5354767A, “Renin inhibiting polyhydroxy-monoamides” (Bio-Mega, Inc., priority 1991, dated 1994).

The compounds below were run against T1, human renin (Homo sapiens, UniProt P00797) (assay: Plasma renin assay (angiotensin I generated in human plasma pool, RIA)). Settings: human plasma pool as source of renin and angiotensinogen; pH 6.0; 2 h at 37°; 1% dimethylsulfoxide.
T1 construct: A human plasma pool is used as the source of both the substrate (angiotensinogen) and the enzyme (renin); from tissue; host or cells: human plasma pool
T1 sequence (P00797 67-406): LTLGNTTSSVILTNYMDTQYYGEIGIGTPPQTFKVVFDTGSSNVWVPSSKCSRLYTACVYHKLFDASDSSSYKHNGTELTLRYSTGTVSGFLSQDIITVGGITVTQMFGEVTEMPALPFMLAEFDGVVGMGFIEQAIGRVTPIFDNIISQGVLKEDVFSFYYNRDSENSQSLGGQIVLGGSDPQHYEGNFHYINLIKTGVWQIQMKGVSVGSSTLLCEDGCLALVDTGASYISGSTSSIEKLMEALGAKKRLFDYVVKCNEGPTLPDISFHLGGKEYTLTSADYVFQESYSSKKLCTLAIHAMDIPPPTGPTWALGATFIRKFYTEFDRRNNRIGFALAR
Assay type: biochemical
Procedure: The assay is performed as follows: The test compound (i.e. the inhibitor) is dissolved in dimethylsulfoxide(1mM stock solution) and diluted with an aqueous buffer solution of 270 mM 2-(N-morpholino)ethanesulfonic acid and 1% human serum albumin (pH 5.85, also containing dimercaprol and 8-hydroxyquinoline sulfate in accordance with the instructions of the RIA kit noted below) to give an assay mixture in which the final dimethylsulfoxide content is 1% (v/v).
A human plasma pool is used as the source of both the substrate (angiotensinogen) and the enzyme (renin). The reaction is initiated by the addition of 50 μL of human plasma pool to 50 μL of various concentrations of inhibitor in the 1% dimethylsulfoxide assay buffer. The plasma renin activity is measured by the amount of angiotensin I generated at pH 6.0 following a 2 h incubation at 37°.
Quantitation of angiotensin I is performed by radioinununoassay (RIA kit from New England Nuclear-Dupont, Mississauga, ON, Canada). The enzymatic activity of renin is expressed in ng of angiotensin I generated/mL/2 h. The extent of inhibition of the reaction is determined from the amount of angiotensin I generated in reference to a control prepared without inhibitor. Nonlinear regression analysis is used to calculate the IC50 values, i.e. the molar concentration of the test compound required to cause a 50% inhibition of the enzyme activity.
The following table exemplifies results obtained for compounds of formula 1.

| SMILES | IC50 |
| --- | --- |
| CC(C)C[C@H](O)[C@H](O)[C@H](CC1CCCCC1)NC(=O)[C@H](CC1CC1)C[C@H](O)[C@H](O)Cc1ccccc1 [Title compound of example 4, (2R, 4S , 5R)-N-[1(S)-(Cyclohexylmethyl)-2(R), 3(S)-dihydroxy-5methylhexyl]-2-(cyclopropylmethyl)-4,5-dihydroxy-6-phenylhexanamide] | 110 nM |
| CC(C)C[C@H](O)[C@H](O)[C@H](CC1CCCCC1)NC(=O)[C@H](CC1CC1)[C@H](O)C[C@@H](O)Cc1ccccc1 [Title compound of example 12, (2R, 3R, 5S)-N-[1(S)-(Cyclohexylmethyl)-2(R), 3(S)-dihydroxy-5-methylhexyl]-2-(cyclopropylmethyl)-3,5-dihydroxy-6-phenylhexanamide] | 1000 nM |
| CC(C)C[C@H](O)[C@H](O)[C@H](CC1CCCCC1)NC(=O)[C@H](CC1CC1)[C@H](O)C[C@H](O)Cc1ccccc1 [Title compound of example 11, (2R,3R,5R)-N-[1(S)-(Cyclohexylmethyl)-2(R),3(S)-dihydroxy-5-methylhexyl]-2-(cyclopropylmethyl)-3,5-dihydroxy-6-phenylhexanamide] | 260 nM |
| CC(C)C[C@H](O)[C@H](O)[C@H](CC1CCCCC1)NC(=O)[C@H](CC1CC1)C[C@@H](O)[C@H](O)Cc1ccccc1 [Corresponding (2R,4R,5R)-isomer of title compound of example 2] | 38 nM |
| CC(C)C[C@H](O)[C@H](O)[C@H](CC1CCCCC1)NC(=O)[C@H](CC1CC1)[C@@H](O)C[C@@H](O)Cc1ccccc1 [Title compound of example 13] | 175 nM |
| CC(C)C[C@H](O)[C@H](O)[C@H](CC1CCCCC1)NC(=O)[C@H](CC1CC1)C[C@H](O)[C@@H](O)Cc1ccccc1 [Title compound of example 2, (2R, 4S, 5S)-N-[1(S)-(Cyclohexylmethyl)-2(R), 3(S)-dihydroxy-5-methylhexyl]-2-(cyclopropylmethyl)-4,5-dihydroxy-6-phenylhexanamide] | 22 nM |
| CC(C)C[C@H](O)[C@H](O)[C@H](CC1CCCCC1)NC(=O)[C@H](CC1CC1)C[C@@H](O)[C@@H](O)Cc1ccccc1 [Title compound of example 5, (2R, 4R, 5S)-N-[1(S)-(Cyclohexylmethyl)-2(R), 3(S)-dihydroxy-5-methylhexyl]-2-(cyclopropylmethyl)-4,5-dihydroxy-6-phenylhexanamide] | 48 nM |
| CC(C)C[C@H](O)[C@H](O)[C@H](CC1CCCCC1)NC(=O)[C@H](CC1CC1)[C@@H](O)C[C@H](O)Cc1ccccc1 [Title compound of example 10, (2R,3S,5R)-N-[1(S)-(Cyclohexylmethyl)-2(R), 3(S)-dihydroxy-5-methylhexyl]-2-(cyclopropylmethyl)-3,5-dihydroxy-6-phenylhexanamide] | 21 nM |

Same assay, conditions: values in parentheses in the list of other examples; assay not restated there

| SMILES | IC50 |
| --- | --- |
| Cc1nc(C[C@H](C[C@H](O)[C@@H](O)Cc2ccccc2)C(=O)N[C@@H](CC2CCCCC2)[C@@H](O)[C@@H](O)CC(C)C)cs1 | 220 nM |
| CC(C)C[C@H](O)[C@H](O)[C@H](CC1CCCCC1)NC(=O)[C@H](Cc1cnc[nH]1)C[C@@H](O)[C@H](O)Cc1ccccc1 | 173 nM |
| CC(C)C[C@H](O)[C@H](O)[C@H](CC1CCCCC1)NC(=O)[C@H](Cc1cccs1)C[C@H](O)[C@@H](O)Cc1ccccc1 | 485 nM |
